In US20020061836A1, “Methods for altering SXR activation using peptide mimetic HIV protease inhibitor SXR ligands” (priority 2000, published 2002):
Read-outs that look alike come from different tables or passages of the source. Blank lines part the entries; values can stand above or below the compound they belong to.

Experiments:
[1] = molecular target: T1, human SXR ligand binding domain (Homo sapiens, UniProt O75469); test: Gal-L-SXR (Gal-SXR) Gal4 reporter transient transfection assay in CV-1 cells
T1 sequence (O75469 107-434 limits assumed): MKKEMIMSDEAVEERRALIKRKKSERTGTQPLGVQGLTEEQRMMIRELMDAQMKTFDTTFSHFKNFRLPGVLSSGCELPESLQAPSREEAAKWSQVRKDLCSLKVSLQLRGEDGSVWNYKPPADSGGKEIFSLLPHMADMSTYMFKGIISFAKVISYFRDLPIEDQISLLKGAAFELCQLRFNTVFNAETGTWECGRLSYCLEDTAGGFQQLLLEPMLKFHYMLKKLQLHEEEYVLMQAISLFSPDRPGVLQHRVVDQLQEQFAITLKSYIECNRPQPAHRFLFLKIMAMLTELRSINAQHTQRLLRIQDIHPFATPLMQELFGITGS
Excerpt: Use of a standard model heterologous cell system to reconstitute SXR agonist and antagonist responsiveness allows SXR activity to be monitored in the absence of the metabolic events which may obscure the process being tested. Any suitable heterologous cell system may be used to test the activation of potential or known SXR nuclear receptor ligands, as long as the cells are capable of being transiently transfected with the appropriate DNA which expresses receptors, reporter genes, response elements, and the like. Cells which constitutively express one or more of the necessary genes may be used as well. Cell systems that are suitable for the transient expression of mammalian genes and which are amenable to maintenance in culture are well known to those skilled in the art. […] Suitable reporter gene constructs are well known to skilled workers in the fields of biochemistry and molecular biology. Activity of the reporter gene can be conveniently normalized to the internal control and the data plotted as fold activation relative to untreated cells.
The Gal4 reporter activity was normalized to the internal β-galactosidase control and the data plotted as fold activation relative to untreated cells. All transfections contained the Gal4 reporter and a β-galactosidase expression vector as an internal control.
(§1) Izbicka et al., Ann. Oncol.
Gal-PXR containing the ligand binding domain of mouse PXR (#AF031814) was obtained from Bruce Blumberg.
Transient Transffection Assays—CV-1 cells were grown and transfected as described.

mouse CARβ = molecular target: T2, mouse CARβ (Mus musculus, UniProt O35627); test: Nuclear receptor specificity transfection assay / LXRE×3-TK-luc reporter with CARβ in CV-1 cells; format: cell-based; settings: LXRE×3-TK-luc reporter; 5 μM androstanol or 50 nM ET-743
T2 sequence (O35627 1-358): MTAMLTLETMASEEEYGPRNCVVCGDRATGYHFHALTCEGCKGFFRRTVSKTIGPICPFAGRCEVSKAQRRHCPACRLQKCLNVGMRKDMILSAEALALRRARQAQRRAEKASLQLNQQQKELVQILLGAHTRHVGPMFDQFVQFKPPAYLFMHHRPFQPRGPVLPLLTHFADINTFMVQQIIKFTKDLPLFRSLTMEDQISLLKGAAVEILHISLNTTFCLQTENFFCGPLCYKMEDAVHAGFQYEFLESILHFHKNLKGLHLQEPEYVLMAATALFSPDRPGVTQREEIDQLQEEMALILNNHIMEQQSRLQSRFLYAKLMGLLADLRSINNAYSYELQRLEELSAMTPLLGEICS

CV-1 cells [2] = system: CV-1 cells
[3] = system: cancer cell-lines and human xenografts; settings: variety of cancer cell-lines and human xenografts; read-out: IC50s for inhibition of proliferation; cited from earlier work
CYP2C8 mRNA = settings: primary human hepatocytes; 10 μM (LG268 100 nM); 48 hours
Experimental: Northern analysis was performed as follows. Primary human hepatocytes were obtained from Clonetics (Walkersville, Md.) and maintained in Hepatocyte Maintenance Medium supplemented with dexamethasone and insulin according to the vendors instructions. Cells were treated with the indicated SXR agonists for 48 hours and total RNA was isolated using the Trizol reagent.
(§2) Northern Blot Analysis—Primary human hepatocytes were obtained from Clonetics (Walkersville, Md.) and cultured according to the vendors instructions. Cells were treated with the indicated compounds for 24 hours and total RNA was isolated using the Trizol reagent.
(§3) After 24 hour exposure to the compounds, total RNA was prepared and analyzed by northern analysis using probes for MDR1 and the GAPDH control.

MRP2 mRNA = test: Northern analysis of MRP2 expression in primary human hepatocytes; format: cell-based; settings: primary human hepatocytes; 2.5 μM hyperforin, 10 μM rifampicin, 10 μM SR12813; 24 hour
Experimental: as §2
After 24 hour exposure to the compounds, total RNA was prepared and analyzed by northern analysis using probes for MRP2 and the GAPDH control. […] CV-1 cells were transiently transfected with a Gal4 reporter and a vector expressing Gal4-fused to the ligand binding domain of human SXR (Gal-SXR).
as §3

MDR1 mRNA = test: Northern analysis of MDR1 expression in human LS180 cells; format: cell-based; settings: 10 μM, 24 hours
Experimental: as §1, §2, §3

[4] = system: LS180 human colon cancer cells; test: [14C]-paclitaxel efflux from pretreated LS180 cells; format: cell-based; settings: LS180 cells induced 48 hours with 10 μM paclitaxel, 10 μM docetaxel or 100 nM LG268
Experimental: Taxane-induced drug efflux was measured using pretreated LS180 human colon cancer cells. The rate of drug efflux was measured. […] Individual data points are the means of triplicate determinations, error bars represent standard deviation and the lines are lines of regression. The slope of each line (rate of efflux) was compared to the slope obtained in the control (untreated) cells using an analysis of covariance. […] The entire experiment was performed three times with similar results. […] The cells were then incubated in media supplemented with 10 μM [^14C]-paclitaxel (4.9 μCi/umol, Moravek Biochemicals, Brea, Calif.) for 15 minutes. The uptake of ^14C-paclitaxel reached maximum levels at 10-12 minutes (data not shown). After 15 minutes, the cells were then rapidly centrifuged through silicone oil to remove all traces of extracellular radioactivity, resuspended in fresh media, and cell counts determined. At multiple time points over the next 10 minutes, triplicate aliquots of the cell suspension (approx. 1×10^5 cells/aliquot) were again centrifuged through silicon oil and the radioactivity in the cell pellet measured by quench-corrected liquid scintillation counting. The rate of [^14C]-paclitaxel efflux was determined as the slope of the [^14C]-paclitaxel versus time plots using all data. The slope for each inducer was compared to the slope obtained in the control (untreated) cells using an analysis of covariance.

[5] = molecular target: SXR interaction with nuclear corepressor SMRT (Homo sapiens, UniProt O75469); test: Mammalian two-hybrid SXR-corepressor interaction assay; format: cell-based; settings: CV-1 cells; 10 μM
[6] = molecular target: SXR coactivator interaction (SRC1, ACTR, GRIP, PBP) (Homo sapiens, UniProt O75469); settings: CV-1 cells; 10 μM docetaxel
CV-1 cells [7] = test: Potential cytotoxic effects at the concentrations and treatment times used; settings: at the indicated concentrations and treatment times

Compound: COc1cc2c(cc1O)CCN[C@]21CS[C@@H]2c3c(OC(C)=O)c(C)c4c(c3[C@H](COC1=O)N1[C@@H]2[C@H]2c3c(cc(C)c(OC)c3O)C[C@@H]([C@@H]1O)N2C)OCO4 [ET-743, ecteinascidin-743]
inhibition of SR12813- and paclitaxel-induced activation of Gal-L-SXR ([1]; 50 nM ET-743, 10 μM SR12813 or 10 μM paclitaxel): extremely potent and effective inhibitor
concentrations of maximal inhibition of SXR ([1]; wild-type SXR and Gal-L-SXR, 10 μM SR12813): 0.025 to 0.05 µM
effect on transcriptional activity of CARβ (mouse CARβ): no effect
potential cytotoxic effects (CV-1 cells [2]): minimal
IC50 [3]: 0.001 to 0.1 µM

Compound: CCOP(=O)(OCC)C(=Cc1cc(C(C)(C)C)c(O)c(C(C)(C)C)c1)P(=O)(OCC)OCC [SR12813]
CYP2C8 mRNA expression (CYP2C8 mRNA): less than that seen with other SXR agonists
MRP2 mRNA expression (MRP2 mRNA): induced expression

activation of Gal-L-SXR [1]: did not effectively activate
effect on SXR-SMRT interaction [5]: little effect
coactivator recruitment effect, less than that seen with paclitaxel [6]: 25-40%
Compound: CC(=O)O[C@@]12CO[C@@H]1C[C@H](O)[C@@]1(C)C(=O)[C@H](O)C3=C(C)[C@@H](OC(=O)[C@H](O)[C@@H](NC(=O)OC(C)(C)C)c4ccccc4)C[C@@](O)([C@@H](OC(=O)c4ccccc4)[C@H]21)C3(C)C [docetaxel]
MDR1 mRNA expression (MDR1 mRNA): did not induce
rate of [14C]-paclitaxel efflux versus untreated cells [4]: did not differ from controls
potential cytotoxic effects (CV-1 cells [7]): minimal
